Measured values taken from PubChem BioAssay (NCI).
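Values below derive from 48-hour exposures of cells grown in 96-well plates, with endpoints linearly interpolated between the two concentrations bracketing the appropriate inhibition level. Here, GI50 denotes the concentration required for 50% inhibition of growth. TGI is the concentration that stops growth completely.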

Key:
Test in all cases: inhibition of tumour cell growth, NCI panel, 48 h
SNB-19 CNS = system: SNB-19 CNS
IGROV1 ovarian = system: IGROV1 ovarian
MDA-MB-231 breast = system: MDA-MB-231 breast
SK-MEL-28 melanoma = system: SK-MEL-28 melanoma
COLO 205 colon = system: COLO 205 colon
HCT-116 colon = system: HCT-116 colon
NCI-H226 lung = system: NCI-H226 lung
A549 NSCLC = system: A549 NSCLC
SF-539 CNS = system: SF-539 CNS
M14 melanoma = system: M14 melanoma
SF-268 CNS = system: SF-268 CNS
UO-31 renal = system: UO-31 renal
HCT-15 colon = system: HCT-15 colon
EKVX NSCLC = system: EKVX NSCLC
NCI-H23 lung = system: NCI-H23 lung
CCRF-CEM leukemia = system: CCRF-CEM leukemia
TK-10 renal = system: TK-10 renal
786-0 renal = system: 786-0 renal
SK-OV-3 ovarian = system: SK-OV-3 ovarian
KM12 colon = system: KM12 colon
T-47D breast = system: T-47D breast
OVCAR-5 ovarian = system: OVCAR-5 ovarian
U251 CNS = system: U251 CNS
SK-MEL-5 melanoma = system: SK-MEL-5 melanoma
MCF7 breast = system: MCF7 breast
OVCAR-8 ovarian = system: OVCAR-8 ovarian
MOLT-4 leukemia = system: MOLT-4 leukemia
HOP-62 NSCLC = system: HOP-62 NSCLC
SR leukemia = system: SR leukemia
OVCAR-4 ovarian = system: OVCAR-4 ovarian
NCI/ADR-RES ovarian = system: NCI/ADR-RES ovarian
LOX IMVI melanoma = system: LOX IMVI melanoma
MALME-3M melanoma = system: MALME-3M melanoma
K-562 leukemia = system: K-562 leukemia
SN12C renal = system: SN12C renal
NCI-H522 lung = system: NCI-H522 lung
SW-620 colon = system: SW-620 colon
A498 renal = system: A498 renal
HL-60(TB) leukemia = system: HL-60(TB) leukemia
UACC-257 melanoma = system: UACC-257 melanoma
PC-3 prostate = system: PC-3 prostate
DU-145 prostate = system: DU-145 prostate
NCI-H460 lung = system: NCI-H460 lung
UACC-62 melanoma = system: UACC-62 melanoma
OVCAR-3 ovarian = system: OVCAR-3 ovarian
HS 578T breast = system: HS 578T breast
RXF 393 renal = system: RXF 393 renal
MDA-MB-435 = system: MDA-MB-435
SF-295 CNS = system: SF-295 CNS
CAKI-1 renal = system: CAKI-1 renal

Compound: CCOc1ccc2nc(S/C(=C/C=C(C#N)C#N)c3ccc(Cl)cc3)sc2c1
- GI50 (SNB-19 CNS): 6.72 µM
- TGI (SNB-19 CNS): 24.5 µM
- GI50 (IGROV1 ovarian): 3.57 µM
- TGI (IGROV1 ovarian): 13 µM
- GI50 (MDA-MB-231 breast): 1.91 µM
- TGI (MDA-MB-231 breast): 5.08 µM
- GI50 (SK-MEL-28 melanoma): 3.81 µM
- TGI (SK-MEL-28 melanoma): 15.9 µM
- GI50 (COLO 205 colon): 3.26 µM
- TGI (COLO 205 colon): 11 µM
- GI50 (HCT-116 colon): 0.937 µM
- TGI (HCT-116 colon): 2.6 µM
- GI50 (NCI-H226 lung): 3.63 µM
- TGI (NCI-H226 lung): 13.2 µM
- GI50 (A549 NSCLC): 16.4 µM
- TGI (A549 NSCLC): 33.2 µM
- GI50 (SF-539 CNS): 3.6 µM
- TGI (SF-539 CNS): 9.24 µM
- GI50 (M14 melanoma): 2.13 µM
- TGI (M14 melanoma): 4.61 µM
- GI50 (SF-268 CNS): 4.63 µM
- TGI (SF-268 CNS): 19 µM
- GI50 (UO-31 renal): 8.08 µM
- TGI (UO-31 renal): 27 µM
- GI50 (HCT-15 colon): 2.42 µM
- TGI (HCT-15 colon): 8.81 µM
- GI50 (EKVX NSCLC): 12.9 µM
- TGI (EKVX NSCLC): 28.9 µM
- GI50 (NCI-H23 lung): 3.1 µM
- TGI (NCI-H23 lung): 10.1 µM
- GI50 (CCRF-CEM leukemia): 0.57 µM
- TGI (CCRF-CEM leukemia): 3.19 µM
- GI50 (TK-10 renal): 2.91 µM
- TGI (TK-10 renal): 9.83 µM
- GI50 (786-0 renal): 1.95 µM
- TGI (786-0 renal): 4.37 µM
- GI50 (SK-OV-3 ovarian): 4.34 µM
- TGI (SK-OV-3 ovarian): 15.3 µM
- GI50 (KM12 colon): 3.84 µM
- TGI (KM12 colon): 15.2 µM
- GI50 (T-47D breast): 3.91 µM
- TGI (T-47D breast): 17.4 µM
- GI50 (OVCAR-5 ovarian): 15.2 µM
- TGI (OVCAR-5 ovarian): 28.5 µM
- GI50 (U251 CNS): 0.628 µM
- TGI (U251 CNS): 4.29 µM
- GI50 (SK-MEL-5 melanoma): 1.76 µM
- TGI (SK-MEL-5 melanoma): 3.86 µM
- GI50 (MCF7 breast): 6.56 µM
- TGI (MCF7 breast): 26.7 µM
- GI50 (OVCAR-8 ovarian): 3.48 µM
- TGI (OVCAR-8 ovarian): 10.3 µM
- GI50 (MOLT-4 leukemia): 1.65 µM
- TGI (MOLT-4 leukemia): > 100 µM
- GI50 (HOP-62 NSCLC): 4.08 µM
- TGI (HOP-62 NSCLC): 13.2 µM
- GI50 (SR leukemia): 1.96 µM
- TGI (SR leukemia): 7.8 µM
- GI50 (OVCAR-4 ovarian): 12.4 µM
- TGI (OVCAR-4 ovarian): 43.8 µM
- GI50 (NCI/ADR-RES ovarian): 2.32 µM
- TGI (NCI/ADR-RES ovarian): 5.19 µM
- GI50 (LOX IMVI melanoma): 0.546 µM
- TGI (LOX IMVI melanoma): 2.03 µM
- GI50 (MALME-3M melanoma): 3.52 µM
- TGI (MALME-3M melanoma): 21.9 µM
- GI50 (K-562 leukemia): 3.43 µM
- TGI (K-562 leukemia): 18.3 µM
- GI50 (SN12C renal): 2.86 µM
- TGI (SN12C renal): 8.18 µM
- GI50 (NCI-H522 lung): 4.43 µM
- TGI (NCI-H522 lung): 15.2 µM
- GI50 (SW-620 colon): 0.631 µM
- TGI (SW-620 colon): 2.92 µM
- GI50 (A498 renal): 2.46 µM
- TGI (A498 renal): 8.6 µM
- GI50 (HL-60(TB) leukemia): 3.08 µM
- TGI (HL-60(TB) leukemia): 34.3 µM
- GI50 (UACC-257 melanoma): 9.1 µM
- TGI (UACC-257 melanoma): 22.1 µM
- GI50 (PC-3 prostate): 4.16 µM
- TGI (PC-3 prostate): 11.8 µM
- GI50 (DU-145 prostate): 3.51 µM
- TGI (DU-145 prostate): 10.7 µM
- GI50 (NCI-H460 lung): 7.49 µM
- TGI (NCI-H460 lung): 25 µM
- GI50 (UACC-62 melanoma): 3.21 µM
- TGI (UACC-62 melanoma): 12.5 µM
- GI50 (OVCAR-3 ovarian): 2.99 µM
- TGI (OVCAR-3 ovarian): 10.9 µM
- GI50 (HS 578T breast): 4.22 µM
- TGI (HS 578T breast): 16.8 µM
- GI50 (RXF 393 renal): 5.3 µM
- TGI (RXF 393 renal): 23.5 µM
- GI50 (MDA-MB-435): 3.18 µM
- TGI (MDA-MB-435): 9.84 µM
- GI50 (SF-295 CNS): 9.85 µM
- TGI (SF-295 CNS): 28.3 µM
- GI50 (CAKI-1 renal): 4.34 µM
- TGI (CAKI-1 renal): 15.3 µM
